No end group written: not given here.
Legend:
[1] = system: HPV-specific T-cell response (splenocytes); assay: IFN-g ELISPOT on splenocytes of vaccinated humanized HLA-A2 transgenic mice; type: in vivo; conditions: for Immune Response, Method: ELISPOT: HLA-A2 humanized transgenic mice, IFN-gamma ELISPOT
Text: (§1) Sequence selection was accomplished herein using both tumor regression studies in C57/B6 mice, and interferon-gamma ELISPOT studies in HLA-A2 humanized transgenic mice. […] In the HLA-A2 mouse model ELISPOT study, at least 20 spots per million splenocytes was regarded to be a positive response.
This example highlights the approach to evaluating T-cell responses using ELISPOT studies in humanized HLA-A2 transgenic mice. In these studies, the vaccine contained the selected peptide at a concentration of 0.1-3.0 mg/mL and cationic liposomes when used, at a concentration of 0.2-3.0 mg/mL. Humanized HLA-A2 transgenic mice having components of the human immune system capable of recognizing human antigens were vaccinated on day 0 and day 7 with 100 uL of the vaccine. On day 14 the mice were sacrificed and HPV-specific immune response evaluated by interferon-gamma ELISPOT using standard approaches with the splecocytes from the mice (4-8 per group). The splenocytes were stimulated with the specified CD8+ T-cell epitope peptides or the long multi-epitope peptides specified in Table 2. The number of IFN-g spots per million cells is listed for the specified examples. […] The ability of the humanized transgenic mice to successfully generate a T-cell immune response (>20 spots) when stimulated with each of the long multi-epitope peptides as well as short single epitope peptides confirms that the selected peptides are effectively processed and presented to T-cells. In these studies, un-stimulated splenocytes and splenocytes stimulated with irrelevant peptides were both used together as negative controls in every assay. For the positive control in the assay ConA was used.
The present study was performed to evaluate the effect of chemical modification of select peptides on immunogenicity and their ability to be processed, presented and to prime human CD8+ HPV-specific T-cell responses. Peptides corresponding to SEQ ID NO: 23 and 25 contain cysteines which upon oxidation lead to the formation of dimers and other multimers. Two vaccine formulations were prepared containing peptides corresponding to SEQ ID NO: 23 and 25.
In Formulation A: Both peptides were monomeric with high purity confirmed by HPLC analysis. The vaccine contained 1.5-1.6 mg/mL of each peptide.
In Formulation B: Significant oxidation and multimer formation of both peptides was confirmed by HPLC analysis.
Both formulations were mixed 1:1 with 5.8 mg/mL of R-DOTAP prior to vaccination.
The immunogenicity of the peptides was compared as described in the above examples in 10 HLA-A2 mice per formulation by evaluating the ability to induce CD8+ T-cells. ELISPOT studies were performed as described above.

TC-1 tumor = TC-1 tumor regression screening of peptides in C57/B6 mice; type: in vivo; set-up: key: Positive: a positive T-cell response was a T-cell response that resulted in regression of the tumor; conditions: TC-1 tumors in C57/B6 mice, vaccinated day 7, peptide alone or with cationic lipid
Text: as §1
This example illustrates the evaluation or screening of several HPV16 E7 peptides in the TC-1 mouse tumor regression model for their effective processing and presentation of the key epitopes leading to HPV-specific T-cell induction and subsequent tumor regression.
In the tumor regression screening studies mice were implanted with 100,000 TC-1 cells on day 0. On day 7, once the tumors were well established the mice were vaccinated with the specific peptide sequences, either formulated alone or in combination with cationic lipids such as DOTMA, DOEPC or R-DOTAP to facilitate up-take and presentation. In these studies, the vaccine contained the selected peptide at a concentration of 0.1-3.0 mg/mL and cationic liposomes at a concentration of 0.2-3.0 mg/mL. In the cases where the peptide sequences were lipidated by attaching a palmitoyl chain, the peptides were simply mixed with the cationic liposomes prior to vaccination. In the case of the non-lipidated peptides, the liposomes were made and peptides encapsulated by traditional thin film liposome preparation methods (F Szoka, and D Papahadjopoulos, Comparative Properties and Methods of Preparation of Lipid Vesicles (Liposomes), Annual Review of Biophysics and Bioengineering, Vol. 9:467-508, 1980). Other methods well known to those skilled in the art may also have been used.
A sample tumor regression plot showing results for peptides corresponding to SEQ ID NO: 1 (blank square), SEQ ID NOS: 7, 8, 31 32 and 31 (solid black circle), SEQ ID NO: 7 (blank circle), and SEQ ID NO: 8 (solid black triangle) is shown in FIG. 3.

[2] = splenocytes stimulated with YMLDLQPETT (SEQ ID NO: 14)
[3] = splenocytes stimulated with TIHDIILECV (SEQ ID NO: 21)
[4] = splenocytes stimulated with LLMGTLGIV (SEQ ID NO: 15)
[5] = splenocytes stimulated with TLGIVCPIC (SEQ ID NO: 22)

| Compound | Immune Response, Method: ELISPOT [1] | Immune Response, Method: tumor regression (TC-1 tumor) | also measured |
| --- | --- | --- | --- |
| CC[C@H](C)[C@H](NC(=O)CNC(=O)[C@H](CC(C)C)NC(=O)[C@@H](NC(=O)CNC(=O)[C@H](CCSC)NC(=O)[C@H](CC(C)C)NC(=O)[C@@H](N)CC(C)C)[C@@H](C)O)C(=O)N[C@H](C(=O)O)C(C)C [SEQ ID NO: 15] | Positive, ELISPOT (at least 20 spots per million splenocytes was regarded to be a positive response) |  |  |
| KFYSKISEYRHCYYSLYGTTL [SEQ ID NO: 12, printed as E7 75-95 peptide] | Negative, ELISPOT |  | ELISPOT result Av spots/10^6 cells ([1]; splenocytes stimulated with KISEYRHCY (SEQ ID NO: 30)): 15 spots/10^6 cells |
| PalmKSS MHGDTPTLHEYMLDLQPETT [SEQ ID NO: 24] | Positive, ELISPOT (at least 20 spots per million splenocytes was regarded to be a positive response) |  | ELISPOT result Av spots/10^6 cells ([1]; splenocytes stimulated with MHGDTPTLHEYMLDLQPETT (SEQ ID NO: 9)): 284 spots/10^6 cells; ELISPOT result Av spots/10^6 cells [1, 2]: 79 spots/10^6 cells |
| QQLLRREVYDFAFRDLCIVYR [SEQ ID NO: 13, printed as E7 42-62 peptide] | Negative, ELISPOT |  | ELISPOT result Av spots/10^6 cells ([1]; splenocytes stimulated with FAFRDLCIV (SEQ ID NO: 29)): 6 spots/10^6 cells |
| KSS GQAEPDRAHYNIVTF (KSSGQAEPDRAHYNIVTF) [SEQ ID NO: 6, HPV16 E7 43-57 peptide with KSS] |  | Negative, tumor regression |  |
| DRAHYNIVTF [SEQ ID NO: 2, HPV16 E7 48-57 peptide] |  | Negative, tumor regression |  |
| PalmKSS ELQTTIHDIILECVYCKQQLL [SEQ ID NO: 23] | Positive, ELISPOT (at least 20 spots per million splenocytes was regarded to be a positive response) |  | ELISPOT result Av spots/10^6 cells ([1]; Formulation A (monomeric peptides SEQ ID NO: 23 and 25, with R-DOTAP), stimulated with TIHDIILECV (SEQ ID NO: 21)): 314 spots/10^6 cells; ELISPOT result Av spots/10^6 cells ([1]; Formulation B (oxidized, multimer peptides SEQ ID NO: 23 and 25, with R-DOTAP), stimulated with TIHDIILECV (SEQ ID NO: 21)): 158 spots/10^6 cells; ELISPOT result Av spots/10^6 cells ([1]; splenocytes stimulated with ELQTTIHDIILECVYCKQQLL (SEQID NO: 13)): 8 spots/10^6 cells; ELISPOT result Av spots/10^6 cells [1, 3]: 612 spots/10^6 cells |
| PalmKSS RAHYNIVTF [SEQ ID NO: 3] |  | Positive, tumor regression |  |
| LLMGTLGIVCPICSQKP [SEQ ID NO: 10, HPV16 E7 82-98 peptide] | Positive, ELISPOT (at least 20 spots per million splenocytes was regarded to be a positive response) |  | ELISPOT result Av spots/10^6 cells [1, 4]: 1 spots/10^6 cells; ELISPOT result Av spots/10^6 cells [1, 5]: 27 spots/10^6 cells |
| CDSTLRLCVQ STHVDIRT (CDSTLRLCVQSTHVDIRT) [SEQ ID NO: 32, E7 61-78 peptide] |  | Positive, tumor |  |
| KSS RAHYNIVTF (KSSRAHYNIVTF) [SEQ ID NO: 4, HPV16 E7 49-57 peptide with KSS] |  | Positive, tumor regression |  |
| CC[C@H](C)[C@H](NC(=O)CNC(=O)[C@H](CC(C)C)NC(=O)[C@@H](N)[C@@H](C)O)C(=O)N[C@H](C(=O)N[C@@H](CS)C(=O)N1CCC[C@H]1C(=O)N[C@H](C(=O)N[C@@H](CS)C(=O)O)[C@@H](C)CC)C(C)C [SEQ ID NO: 22] | Positive, ELISPOT (at least 20 spots per million splenocytes was regarded to be a positive response) |  |  |
| PalmKSS LLMGTLGIVCPICSQKP [SEQ ID NO: 25] | Positive, ELISPOT (at least 20 spots per million splenocytes was regarded to be a positive response) |  | ELISPOT result Av spots/10^6 cells ([1]; Formulation A (monomeric peptides SEQ ID NO: 23 and 25, with R-DOTAP), stimulated with LLMGTLGIV (SEQ ID NO: 15)): 52 spots/10^6 cells; ELISPOT result Av spots/10^6 cells ([1]; Formulation B (oxidized, multimer peptides SEQ ID NO: 23 and 25, with R-DOTAP), stimulated with LLMGTLGIV (SEQ ID NO: 15)): 48 spots/10^6 cells; ELISPOT result Av spots/10^6 cells [1, 4]: 5 spots/10^6 cells; ELISPOT result Av spots/10^6 cells ([1]; splenocytes stimulated with LLMGTLGIVCPICSQKP (SEQ ID NO: 10)): 92 spots/10^6 cells; ELISPOT result Av spots/10^6 cells [1, 5]: 31 spots/10^6 cells |
| RAHYNIVTF [SEQ ID NO: 1] |  | Positive, tumor regression |  |
| TIHDIILECV [SEQ ID NO: 21, printed as E7 29-38 peptide] | Positive, ELISPOT (at least 20 spots per million splenocytes was regarded to be a positive response) |  |  |
| EPDRAHYNIVTFCCKCDS [SEQ ID NO: 8, HPV16 E7 46-63 peptide] |  | Negative, tumor regression |  |
| PalmKSS LLMGTLGIV [SEQ ID NO: 28] | Positive, ELISPOT (at least 20 spots per million splenocytes was regarded to be a positive response) |  | ELISPOT result Av spots/10^6 cells [1, 4]: 96 spots/10^6 cells |
| PalmKSS YMLDLQPETT [SEQ ID NO: 27] | Positive, ELISPOT (at least 20 spots per million splenocytes was regarded to be a positive response) |  | ELISPOT result Av spots/10^6 cells [1, 2]: 280 spots/10^6 cells |
| CSCC[C@H](NC(=O)[C@@H](N)Cc1ccc(O)cc1)C(=O)N[C@@H](CC(C)C)C(=O)N[C@@H](CC(=O)O)C(=O)N[C@@H](CC(C)C)C(=O)N[C@@H](CCC(N)=O)C(=O)N1CCC[C@H]1C(=O)N[C@@H](CCC(=O)O)C(=O)N[C@H](C(=O)N[C@H](C(=O)O)[C@@H](C)O)[C@@H](C)O [SEQ ID NO: 14] | Positive, ELISPOT (at least 20 spots per million splenocytes was regarded to be a positive response) |  | ELISPOT result Av spots/10^6 cells [1, 2]: 580 spots/10^6 cells |
| PAGQAEPDRAHYNIVTFC [SEQ ID NO: 7, HPV16 E7 41-58 peptide] |  | Positive, tumor regression |  |
| ELQTTIHDIILECVYCKQQLL [SEQ ID NO: 11, HPV16 E6 25-45 peptide] | Positive, ELISPOT (at least 20 spots per million splenocytes was regarded to be a positive response) |  | ELISPOT result Av spots/10^6 cells [1, 3]: 262 spots/10^6 cells |
| MHGDTPTLHEYMLDLQPETT [SEQ ID NO: 9] | Positive, EISPOT (at least 20 spots per million splenocytes was regarded to be a positive response) |  | ELISPOT result Av spots/10^6 cells [1, 2]: 235 spots/10^6 cells |
| GQAEPDRAHYNIVTF [SEQ ID NO: 5, HPV16 E7 43-57 peptide] |  | Positive, tumor regression |  |
